{"source": "patent US20230152324A1", "about": "“TUMOR-INTRINSIC NLRP3 INFLAMMASOME SIGNALING PATHWAY AS A GENETIC AND FUNCTIONAL BIOMARKER FOR IMMUNOTHERAPY RESPONSE” (Duke University, priority 2021, published 2023)", "test_system": "mice bearing BRAF^V600EPTEN^−/− melanomas", "test": "Lung fibronectin expression (qrt-PCR, IHC) in BRAFV600EPTEN−/− melanoma-bearing mice", "type": "in vivo, mouse", "conditions": "anti-PD-1 vs anti-PD-1/Wnti treated tumor-bearing mice", "excerpt": "Prior studies have shown that the arrival of […] (HPC) expressing vascular endothelial growth factor receptor-1 (VEGFR1) in the lung as well as increased fibronectin expression by local fibroblasts contribute to the formation of a pre-metastatic niche that subsequently supports metastatic progression (35). Using multi-parameter flow cytometry, we indeed observed an increase in a c-kit^+CD133^+CD34^+VEGFR1^+ HPC (VEGFR1^+ HPC) population in mice harboring BRAF^V600EPTEN^−/− melanomas relative to non-tumor-bearing controls. […]\nSmall representative tissue specimens were harvested from tumors and lungs and stored in RNAlater at −80° C. […] Total RNA was isolated by RNeasy Plus Mini Kit (Qiagen, 74134) and RNA was quantified by NanoDrop. […] All data were normalized to Actb expression and relative gene expression was quantitated based on the 2ΔΔCt method. Relative mRNA levels of the following genes were measured: Cxcl5, Cxcl1, Cxcl2, Trp2, Csf3, Il1b, Fn1, Tgfb, Tgfbr2, Spp1, and Hsp70.\nParaffin-Sections (5-μm) from primary melanomas and lung tissues were processed using standard protocols for immunohistochemistry (IHC) and immunofluorescence (IF) staining. […] PMN-MDSC quantitation by Ly6G-staining, and CD8^+ T cell quantitation by CD8a-staining were performed at 20× magnification and 6-8 random fields were averaged per section over 3-4 sections per specimen. […]", "data": [{"smiles": "Cn1c(=O)c2c(ncn2CC(=O)Nc2ccc(-c3ccccc3)nn2)n(C)c1=O", "note": "[ETC-159]", "values": [{"measurement": "tumor-dependent upregulation of fibronectin expression levels in the lungs", "result": "reversed"}]}]}
